Laboratory results taken from US7271160B2, “Methods and compositions for degradation and/or inhibition of HER-family tyrosine kinases” (Sloan-Kettering Institute for Cancer Research, priority 1999, dated 2007).
“Also recorded” adds a separate entry of the source.

How the values were obtained:
[1] = system: Raf-1; experiment: Induction of Raf-1 degradation in MCF-7 cells (immunoblotting); assay type: cell-based, human; conditions: for IC50: 24-hr treatment, amount of drug needed to degrade 50% of the protein vs control, average of three experiments
Experimental: (§1) After exposure, cells were washed twice with ice-cold phosphate-buffered saline (PBS), collected by scraping and transferred into microcentrifuge tubes. For immunoblotting (HER2, Raf-1, ER), cells were lysed with SDS lysis buffer (50 mM Tris-HCl, pH 7.5, 2% SDS, 10% glycerol, and 1 mM DTT), boiled for 10 min, and sonicated briefly; for immanoprecipitation (IGF-IR), cells were lysed with NP40 lysis buffer (50 mM Tris-HCl, pH 7.5, 1% Nonidet P-40, 150 mM NaCl, 1 mM Na3VO4, 40 mM NaF, 1 mM phenylmethylsulfonyl fluoride (PMSF) and 10 μg/ml each of aprotinin, leupeptin and soybean trypsin inhibitor) for 20 min at 4° C. Cell lysates were cleared by centrifuging at 14,000×g for 15 min at 4° C. in a microcentrifuge; the supernatants were collected as the experimental samples. Protein concentration in each sample was determined using the BCA kit (Pierce) according to the manufacture's instructions. For detecting IGF-IR, samples were immunoprecipitated with anti-IGF-IR antibody. Immunocomplexes were collected on protein A-Sepharose beads (Pharmacia), washed three tires with the lysis buffer. Samples were subjected to SDS-PAGE, electrotransferred to nitrocellulose membranes, detected using the ECL kit (Amersham) according to the manufacturer's protocol, and quantitated using the Gel Doc 1000 (Bio-Rad).
(§2) Numerical results for IC50 for HER-2, Raf-1 and cell growth are summarized in Table 1, with each number representing the average of three different experiments.

[2] = system: MCF-7 cells; experiment: MCF-7 cell growth inhibition (cell counting); assay type: cell-based; conditions: Homo sapiens, MCF7, 96 h; MCF-7 cells treated for four days; 50% growth inhibition vs vehicle; average of three experiments; read-out: IC50 (growth inh.)
Experimental: (§3) The human breast cancer cell lines MCF-7 and SKBR-3 were obtained from ATCC (Rockville, Md.), and maintained in DME/F12 (1:1) supplemented with 10% heat-inactivated fetal bovine serum (Gemini Bioproducts), 2 mM glutamine, and 50 units/ml each of penicillin and streptomycin, in a humidified 5% CO2/air atmosphere at 37° C.
For cell growth experiments, cells were plated in 6-well tissue-culture plates (Corning) at 20,000 cells/well. Two days after plating, cells were treated with different concentrations of drugs or the vehicle DMSO (0.1%). MCF-7 cells were treated for four days; medium with the appropriate drug or vehicle was changed every 2 days; cells were trypsinized, collected and counted on a Coulter counter; IC50 for cell growth is designated as the amount of each drug needed to inhibit MCF-7 growth by 50% compared to the control vehicle.

[3] = system: HER2; experiment: Induction of HER2 degradation in MCF-7 cells (immunoblotting); assay type: cell-based, human; conditions: for IC50: 24-hr treatment, amount of drug needed to degrade 50% of the protein vs control, average of three experiments, read-out: IC50 (HER-2); for specificity/selectivity for HER-2 over Raf-1: compared to GM
Experimental: as §1, §2

[4] = system: HER2; experiment: Immunofluorescence of HER2 in MCF-7 cells; assay type: cell-based, human; conditions: vs DMSO control
Experimental: (§4) MCF-7 cells were grown and treated on fibronectin-coated coverslips placed in multiwell plates. Cells were fixed for 20 min at −20° C. in 100% methanol, rehydrated in PBS for 10 min at room temperature and blocked for 30 min at 37° C. in a blocking solution consisting of 2% bovine serum albumin (BSA), 10% normal goat serum and 0.05% Tween-20 in PBS. HER2 and Raf-1 were immunodetected with antibodies from Santa Cruz (SC284 and SC133, respectively); IGF-IR, an antibody from Calbiochem Oncogene Science (Abl). Slides were incubated with a […] of the primary antibody in blocking buffer for 1 hr at room temperature, followed by an incubation with Alexa 546-coupled goat anti-rabbit lgG secondary antibody (A-11010, Molecular Probes) at a […] in blocking buffer, or fluoresceine isothiocyanate-coupled goat anti-mouse IgG (F276, Molecular Probes) at a […]. […] DNA was stained with bisbenzimide, which was included in the secondary antibody solution (3 μg/ml final concentration. Coverslips were mounted on glass slides using Vectashield (Vector), to prevent quenching of fluorescence. Immunofluorescence was detected with a Zeiss epifluorescence microscope, at 40× and 100×, using appropriate filters for detection of rhodamine and bisbenzimide, and via confocal microscopy.

[5] = system: Raf-1; experiment: Immunofluorescence of Raf-1 in MCF-7 cells; assay type: cell-based, human; conditions: vs DMSO control
Experimental: as §4

[6] = system: SKBR3; experiment: SKBR3 breast cancer cell sensitivity; assay type: cell-based, human; conditions: SKBR3, HER2 highly overexpressed
Experimental: as §3

[7] = system: HER-2 and Raf-1; experiment: Varying concentration and treatment pattern, HER-2 and Raf-1 levels (Example 3); assay type: cell-based
[8] = system: 32D cells; experiment: 32D cell growth (HER-kinase negative cells, daily cell counts); assay type: cell-based, murine; conditions: 32D cells lacking HER-kinases; various concentrations, counted daily for three days
Experimental: Murine hematopoietic cell line 32D, which lacks HER-kinases, was kindly provided by Dr Yosef Yarden (The Weizmann Institute of Science, Israel), and maintained in RPMI-1640 supplemented with 10% heat-inactivated FBS, 2 nm interleukin 3 (R&D systems), 2 mM glutamine, and 50 units/ml each of penicillin and streptomycin.

[9] = system: IGF-IR; experiment: Immunofluorescence of IGF-IR in MCF-7 cells; assay type: cell-based, human; conditions: vs DMSO control
Experimental: as §4

[10] = system: estrogen receptor; experiment: Estrogen receptor level in MCF-7 cells (immunoblotting time course); assay type: cell-based, human; conditions: 1 μM, 3 to 24 hours
[11] = system: IGF-I receptor; experiment: IGF-I receptor level in MCF-7 cells (immunoprecipitation/immunoblotting time course); assay type: cell-based, human; conditions: 1 μM, 3 to 24 hours
Experimental: as §1, with “For immunoblotting (HER2, Raf-1, ER), cells were lysed with SDS lysis buffer (50 mM Tris-HCl, pH 7.5, 2% SDS, 10% glycerol, and 1 mM DTT), boiled for 10 min, and sonicated briefly; for immanoprecipitation (IGF-IR), cells were lysed with NP40 lysis buffer (50 mM Tris-HCl, pH 7.5, 1% Nonidet P-40, 150 mM NaCl, 1 mM Na3VO4, 40 mM NaF, 1 mM phenylmethylsulfonyl fluoride (PMSF) and 10 μg/ml each of aprotinin, leupeptin and soybean trypsin inhibitor) for 20 min at 4° C.” left out

IC50 [1]	IC50 [2]	IC50 [3]	SMILES	activity against Raf-1 (in words) [1]	activity against HER2 (in words) [3]	specificity/selectivity for HER-2 over Raf-1 [3]	other results
3200 nM	100 nM	60 nM	COC1C=CC=C(C)C(=O)NC2=CC(=O)C(NCCCCNC3=C4CC(C)CC(OC)C(O)C(C)C=C(C)C(OC(N)=O)C(OC)C=CC=C(C)C(=O)NC(=CC3=O)C4=O)=C(CC(C)CC(OC)C(O)C(C)C=C(C)C1OC(N)=O)C2=O (stereo not drawn) [GMD-4c]			greatest selectivity of the compounds tested	anti-HER2 staining (immunofluorescence) [4]: significant reduction in fluorescence levels; anti-Raf-1 staining (immunofluorescence) [5]: only observed for the anti-HER2 antibodies; Raf-1 expression over time ([1]; 1 μM, 3 to 24 hours): does not affect; HER2 / HER-kinase expression over time ([3]; 1 μM, 3 to 24 hours, Western blot and immunohistochemical analysis): reduces HER2 expression with the same kinetics; sensitivity of SKBR3 cells [6]: very sensitive; amount of HER-2 and Raf-1 as a function of the treatment pattern ([7]; 0.25, 0.5 and 1 μM, single or repeated treatments at 0, 3, 6, 12 hours): No significant differences; selectivity on repeated addition ([7]; high concentrations added four times in twelve hours): retained selectivity; effect on growth of 32D cells [8]: does not appreciably affect its growth; also recorded: much less so; anti-IGF-IR staining (immunofluorescence) [9]: only observed for the anti-HER2 antibodies; Estrogen receptor levels over time [10]: declined transiently but returned to baseline by 24 hours; IGF-I receptor expression over time [11]: does not affect
500 nM	600 nM	70 nM	COC1C=CC=C(C)C(=O)NC2=CC(=O)C(NCCCCCCCNC3=C4CC(C)CC(OC)C(O)C(C)C=C(C)C(OC(N)=O)C(OC)C=CC=C(C)C(=O)NC(=CC3=O)C4=O)=C(CC(C)CC(OC)C(O)C(C)C=C(C)C1OC(N)=O)C2=O (stereo not drawn) [GMD-7c]				
> 5000 nM	> 2000 nM	> 5000 nM	CC(C)C(C)C [GMD-aa]	inactive	inactive		
3500 nM	700 nM	750 nM	COC1C=CC=C(C)C(=O)NC2=CC(=O)C(NCCCCCCCCCCCCNC3=C4CC(C)CC(OC)C(O)C(C)C=C(C)C(OC(N)=O)C(OC)C=CC=C(C)C(=O)NC(=CC3=O)C4=O)=C(CC(C)CC(OC)C(O)C(C)C=C(C)C1OC(N)=O)C2=O (stereo not drawn) [twelve carbon-linked compound]				

SMILES	IC50 [1]	IC50 [2]	IC50 [3]	activity against Raf-1 (in words) [1]	activity against HER2 (in words) [3]	specificity/selectivity for HER-2 over Raf-1 [3]	other results
COC1C=CC=C(C)C(=O)NC2=CC(=O)C(NCCCCCCCCCNC3=C4CC(C)CC(OC)C(O)C(C)C=C(C)C(OC(N)=O)C(OC)C=CC=C(C)C(=O)NC(=CC3=O)C4=O)=C(CC(C)CC(OC)C(O)C(C)C=C(C)C1OC(N)=O)C2=O (stereo not drawn)	3800 nM	700 nM	500 nM				
COC1C=CC=C(C)C(=O)NC2=CC(=O)C(NCCCCN)=C(CC(C)CC(OC)C(O)C(C)C=C(C)C1OC(N)=O)C2=O (stereo not drawn) [ButylaminoGM]			55 nM	modestly weaker than GM	modestly weaker than GM	not selective	
